From PMC3713009 (PLoS ONE, 2013)
Where two headings read alike, the source gives them in different places.

Key:
HDAC3/NCOR1 complex = HDAC3/NCOR1 complex (Homo sapiens, UniProt O15379); assay: HDAC3 enzyme assay (fluorescent activity kit, HDAC3/NCOR1 complex); type: biochemical; details: for inhibition at 10 µM: library screen, o-aminoanilides T1–T336 without purification, values read from Figure 7; for IC50 / IC50 HDAC3: class I, means of at least three experiments;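 for all read-outs here: in vitro enzyme activity of HDAC3 complexed with NCOR1, fluorescence read at 360 nm excitation and 460 nm emission, inhibition relative to uninhibited control wells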
HDAC3/NCOR1 complex, sequence (O15379 whole entry): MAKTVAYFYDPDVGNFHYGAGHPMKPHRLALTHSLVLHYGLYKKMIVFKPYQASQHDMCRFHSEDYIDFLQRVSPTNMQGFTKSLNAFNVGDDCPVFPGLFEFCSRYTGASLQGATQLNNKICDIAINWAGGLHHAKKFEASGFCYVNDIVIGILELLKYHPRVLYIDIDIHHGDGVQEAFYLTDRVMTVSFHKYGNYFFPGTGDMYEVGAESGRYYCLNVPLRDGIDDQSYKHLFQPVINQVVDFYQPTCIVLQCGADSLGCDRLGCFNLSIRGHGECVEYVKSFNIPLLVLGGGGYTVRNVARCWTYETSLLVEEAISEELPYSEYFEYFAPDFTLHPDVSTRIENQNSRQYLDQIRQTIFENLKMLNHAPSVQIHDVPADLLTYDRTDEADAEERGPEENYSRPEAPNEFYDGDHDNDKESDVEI
HDAC3/NCOR1 complex, sequence (O75376 395-489 partner limits assumed): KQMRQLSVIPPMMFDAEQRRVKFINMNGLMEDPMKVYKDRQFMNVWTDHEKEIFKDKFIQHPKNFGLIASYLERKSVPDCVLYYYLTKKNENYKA
Description: Because HDAC3 forms a complex with NCOR1 in cells [45], we used HDAC3/NCOR1 complex in in vitro HDAC3 assay. […] Therefore, as a primary in vitro screening for HDAC3 selectivity, we used total HDACs from HeLa nuclear extracts, in which the combined deacetylase activity of HDAC1 and HDAC2 is much higher than the activity of HDAC3 [46]. Initially, o-aminoanilides T1–T336 (10 µM) and hydroxamates T337–T504 (1 µM) were tested for inhibitory activity against HDAC3. […] The fluorescence of the wells was measured on a fluorometric reader with excitation set at 360 nm and emission detection set at 460 nm, and the values of % inhibition were calculated from the fluorescence readings of inhibited wells relative to those of control wells. […] IC50 values were determined by regression analysis of the concentration/inhibition data.

[1] = biological target: total HDACs from HeLa nuclear extracts; assay: Total HDACs enzyme assay (HeLa nuclear extracts); type: biochemical; details: pure resynthesized compounds, means of at least three experiments
HDAC6 = biological target: T1, HDAC6 (Homo sapiens, UniProt Q9UBN7); assay: HDAC6 enzyme assay; type: biochemical; details: class IIb; means of at least three experiments
T1 construct: purchased BIOMOL Research Laboratories SE-508
T1 sequence (Q9UBN7 1-1215): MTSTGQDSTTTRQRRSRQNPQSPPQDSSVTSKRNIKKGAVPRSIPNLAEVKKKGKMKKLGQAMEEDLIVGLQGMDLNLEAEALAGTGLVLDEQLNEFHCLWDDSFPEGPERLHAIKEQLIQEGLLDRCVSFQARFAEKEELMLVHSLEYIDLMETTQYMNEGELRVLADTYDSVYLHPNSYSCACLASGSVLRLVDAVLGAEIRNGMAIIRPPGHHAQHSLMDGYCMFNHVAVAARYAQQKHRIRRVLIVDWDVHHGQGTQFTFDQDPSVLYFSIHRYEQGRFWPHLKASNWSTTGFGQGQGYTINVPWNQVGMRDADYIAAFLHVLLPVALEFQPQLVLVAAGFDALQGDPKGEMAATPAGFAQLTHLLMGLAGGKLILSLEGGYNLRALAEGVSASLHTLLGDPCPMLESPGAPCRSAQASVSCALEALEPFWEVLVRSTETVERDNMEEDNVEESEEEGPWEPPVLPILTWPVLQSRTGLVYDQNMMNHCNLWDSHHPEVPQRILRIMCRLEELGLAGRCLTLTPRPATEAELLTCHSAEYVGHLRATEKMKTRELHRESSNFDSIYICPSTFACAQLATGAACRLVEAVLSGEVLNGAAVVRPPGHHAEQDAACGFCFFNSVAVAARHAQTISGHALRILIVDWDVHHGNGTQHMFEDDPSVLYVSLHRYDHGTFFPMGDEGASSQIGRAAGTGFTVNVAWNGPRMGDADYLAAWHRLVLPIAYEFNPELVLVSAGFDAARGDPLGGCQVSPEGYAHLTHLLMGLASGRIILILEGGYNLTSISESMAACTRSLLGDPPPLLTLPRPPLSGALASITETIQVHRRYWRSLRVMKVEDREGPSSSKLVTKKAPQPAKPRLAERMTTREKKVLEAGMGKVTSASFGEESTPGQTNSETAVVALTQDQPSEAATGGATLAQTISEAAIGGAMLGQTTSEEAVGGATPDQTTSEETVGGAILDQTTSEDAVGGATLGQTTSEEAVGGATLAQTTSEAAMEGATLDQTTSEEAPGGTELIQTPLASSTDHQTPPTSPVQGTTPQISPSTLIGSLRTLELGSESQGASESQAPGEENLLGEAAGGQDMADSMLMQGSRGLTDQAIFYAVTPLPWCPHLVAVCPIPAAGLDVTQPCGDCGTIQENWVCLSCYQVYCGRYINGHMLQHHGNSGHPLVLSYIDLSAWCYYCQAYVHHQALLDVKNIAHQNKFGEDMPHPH

HDAC1 = biological target: T2, HDAC1 (Homo sapiens, UniProt Q13547); assay: HDAC1 enzyme assay; type: biochemical; details: class I; means of at least three experiments
T2 construct: purchased SignalChem Pharmaceuticals Inc. H83-30G
T2 sequence (Q13547 whole entry): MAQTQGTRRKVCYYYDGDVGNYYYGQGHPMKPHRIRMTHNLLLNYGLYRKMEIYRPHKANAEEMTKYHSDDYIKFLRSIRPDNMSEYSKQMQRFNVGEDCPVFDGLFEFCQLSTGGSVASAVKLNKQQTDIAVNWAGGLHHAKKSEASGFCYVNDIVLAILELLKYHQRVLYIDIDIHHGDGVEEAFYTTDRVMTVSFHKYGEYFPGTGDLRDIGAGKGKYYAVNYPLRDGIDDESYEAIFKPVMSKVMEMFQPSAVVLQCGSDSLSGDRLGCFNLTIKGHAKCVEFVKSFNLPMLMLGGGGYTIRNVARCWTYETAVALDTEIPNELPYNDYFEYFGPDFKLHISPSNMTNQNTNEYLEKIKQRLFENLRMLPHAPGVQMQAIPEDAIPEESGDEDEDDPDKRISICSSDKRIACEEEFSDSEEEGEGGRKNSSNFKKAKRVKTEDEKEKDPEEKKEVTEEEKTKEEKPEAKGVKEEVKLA
Description: (§1) The fluorescence of the wells was measured on a fluorometric reader with excitation set at 360 nm and emission detection set at 460 nm, and the values of % inhibition were calculated from the fluorescence readings of inhibited wells relative to those of control wells. […] IC50 values were determined by regression analysis of the concentration/inhibition data.

[2] = tested on: prostate cancer PC3 cells; assay: Cell growth inhibition assay (MTT), PC3; type: cell-based; details: Homo sapiens, read-out: GI50 PC3 (prostate cancer)
Description: (§2) The solubilized dye was quantified by colorimetric reading at 570 nm. The absorbance values of control wells (C) and test wells (T) were measured. The absorbance of the test wells (T 0) was also measured at time 0 (addition of compounds). Using these measurements, cell growth inhibition (percentage of growth) by a test inhibitor at each concentration used was calculated as: % growth = 100×[(T – T 0)/(C – T 0)], when T>T 0 and % growth = 100× [(T – T 0)/T], when T<T 0.

[3] = tested on: OM10.1 cells latently infected with HIV-1; assay: Viral p24 antigen assay in latently HIV-1-infected OM10.1 cells; type: cell-based
Description: Figure 13 Induction of viral replication from OM10.1 cells latently infected with HIV-1. […] HIV-1 p24 antigen in the cell culture supernatant was measured using ELISA. Experiments were performed in triplicate, and the means ±S.D. are indicated. **P<0.01, *P<0.05; Student’s t test results indicated differences between DMSO and inhibitors.
The p24 antigen level in the cell culture supernatant was measured by p24 antigen capture ELISA assay using a commercial kit (RETRO-TEK HIV-1 p24 Antigen ELISA kit; Zepto Metrix, Buffalo, NY, USA) according to the method reported in ref [54].

HDAC8 = biological target: T3, HDAC8 (Homo sapiens, UniProt Q9BY41); assay: HDAC8 enzyme assay; type: biochemical; details: class I; means of at least three experiments
T3 construct: purchased Cyclex Company Limited CY-1158
T3 sequence (Q9BY41 1-377): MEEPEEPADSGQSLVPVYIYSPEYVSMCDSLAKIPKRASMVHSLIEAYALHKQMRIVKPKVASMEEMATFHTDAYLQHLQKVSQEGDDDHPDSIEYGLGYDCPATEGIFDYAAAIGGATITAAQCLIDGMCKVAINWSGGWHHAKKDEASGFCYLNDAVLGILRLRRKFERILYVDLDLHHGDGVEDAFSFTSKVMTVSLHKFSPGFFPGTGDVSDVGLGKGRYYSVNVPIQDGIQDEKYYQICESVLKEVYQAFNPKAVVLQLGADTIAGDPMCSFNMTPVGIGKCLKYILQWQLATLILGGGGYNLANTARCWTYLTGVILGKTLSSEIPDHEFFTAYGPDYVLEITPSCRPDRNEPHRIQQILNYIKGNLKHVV
Description: as §1

HDAC4 = biological target: T4, HDAC4 (Homo sapiens, UniProt P56524); assay: HDAC4 enzyme assay; type: biochemical; details: class IIa; means of at least three experiments
T4 construct: purchased BPS Bioscience Incorporated
T4 sequence (P56524 627-1084 limits assumed): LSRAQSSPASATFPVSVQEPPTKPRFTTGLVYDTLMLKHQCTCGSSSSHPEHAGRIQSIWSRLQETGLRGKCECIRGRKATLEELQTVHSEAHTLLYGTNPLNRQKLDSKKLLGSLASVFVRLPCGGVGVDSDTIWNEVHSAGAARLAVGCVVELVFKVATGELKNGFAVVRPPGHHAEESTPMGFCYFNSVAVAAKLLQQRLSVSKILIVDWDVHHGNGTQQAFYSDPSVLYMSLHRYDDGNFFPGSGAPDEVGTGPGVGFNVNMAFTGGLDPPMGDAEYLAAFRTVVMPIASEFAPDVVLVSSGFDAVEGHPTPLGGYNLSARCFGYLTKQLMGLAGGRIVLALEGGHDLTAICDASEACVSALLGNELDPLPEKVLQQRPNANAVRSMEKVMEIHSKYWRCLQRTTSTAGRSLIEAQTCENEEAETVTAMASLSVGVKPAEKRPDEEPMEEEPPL

[4] = tested on: colon cancer HCT116 cells; assay: Cell growth inhibition assay (MTT), HCT116; type: cell-based; details: Homo sapiens, read-out: GI50 HCT116 (colon cancer)
Description: as §2

[5] = tested on: acetylated α-tubulin in HCT116 cells; assay: Western blot of acetylated α-tubulin in HCT116 cells; type: cell-based, human; details: 8 h treatment
Description: (§3) Since HDAC3 is known to catalyze the deacetylation of NF-κB [13]–[14], we initially examined the effects of the inhibitors on the acetylation levels of NF-κB in HCT116 cells.
(§4) Protein concentrations of the lysates were determined using a Bradford protein assay kit (Bio-Rad Laboratories); equivalent amounts of proteins from each lysate were resolved in AnykD SDS-polyacrylamide gels and then transferred onto nitrocellulose membranes (Bio-Rad Laboratories). After having been blocked for 30 min with Tris-buffered saline (TBS) containing 3% skimmed milk, the transblotted membranes were incubated overnight at 4°C with acetyl NF-κB antibody (CST) (1∶1000 dilution), NF-κB antibody (CST) (1∶1000 dilution), acetyl α-tubulin antibody (Sigma) (1∶2000 dilution), α-tubulin antibody (Sigma) (1∶2000 dilution), acetyl p53 antibody (CST) (1∶500 dilution) or p53 antibody (CALBIOCHEM) (1∶500 dilution) in TBS containing 3% skimmed milk. […] The immunoblots were visualized by enhanced chemiluminescence.

[6] = tested on: acetylated NF-κB in HCT116 cells; assay: Western blot of acetylated NF-κB in HCT116 cells; type: cell-based, human; details: 8 h treatment
Description: as §3, §4

[7] = tested on: acetylated p53 in HCT116 cells; assay: Western blot of acetylated p53 in HCT116 cells; type: cell-based, human; details: 8 h treatment
Description: as §3, §4

[8] = 1 µM, means of two experiments, read-out: HDAC3 inhibition (%)
[9] = 3 µM, means of two experiments, read-out: HDAC3 inhibition (%)
[10] = PC-3, 48 h exposure, MTT, means of at least three experiments
[11] = 48 h, 0.1, 1 and 10 µM, effect at 1 µM and/or 10 µM
[12] = HCT-116, 48 h exposure, MTT, means of at least three experiments

SMILES: Nc1ccccc1NC(=O)c1ccc(-c2cn(CCC3CCCCC3)nn2)cc1 [Compound T254]
- HDAC3 inhibition (%) (HDAC3/NCOR1 complex; 1 µM, means of two experiments): 55%
- HDAC3 inhibition (%) (HDAC3/NCOR1 complex; 3 µM, means of two experiments): 80%

SMILES: Cc1ccc(C(=O)NCC(=O)NCCC(=O)Nc2ccccc2N)cc1 [compound 1, reference compound]
- inhibition at 1 µM (HDAC3/NCOR1 complex; [8]): 9%
- inhibition at 3 µM (HDAC3/NCOR1 complex; [9]): 29%
- inhibition at 10 µM (HDAC3/NCOR1 complex): 47%
- IC50 (HDAC3/NCOR1 complex): 19 µM
- IC50 [1]: > 100 µM
- IC50 (HDAC6): > 100 µM
- IC50 (HDAC1): > 100 µM
- GI50 [2, 10]: > 100 µM
- HIV-1 expression (p24 antigen in supernatant) [3, 11]: did not show any activity
- IC50 (HDAC8): > 100 µM
- IC50 (HDAC4): > 100 µM
- GI50 [4, 12]: 81 µM

SMILES: Cc1ccccc1CCn1cc(-c2ccc(C(=O)Nc3ccccc3N)cc2)nn1 [Compound T263]
- HDAC3 inhibition (%) (HDAC3/NCOR1 complex; 1 µM, means of two experiments): 74%
- HDAC3 inhibition (%) (HDAC3/NCOR1 complex; 3 µM, means of two experiments): 91%

SMILES: COc1cccc(CCn2cc(-c3ccc(C(=O)Nc4ccccc4N)cc3)nn2)c1 [Compound T267]
- HDAC3 inhibition (%) (HDAC3/NCOR1 complex; 1 µM, means of two experiments): 80%
- HDAC3 inhibition (%) (HDAC3/NCOR1 complex; 3 µM, means of two experiments): 92%

SMILES: Nc1ccccc1NC(=O)c1ccc(-c2cn(CCc3cccc([N+](=O)[O-])c3)nn2)s1 [Compound T326, 5-{1-[2-(3-Nitrophenyl)ethyl]-1H-[1], [2], [3]triazol-4-yl}thiophene-2-carboxylic acid (2-aminophenyl)amide]
- inhibition at 1 µM (HDAC3/NCOR1 complex; [8]): 86%
- inhibition at 3 µM (HDAC3/NCOR1 complex; [9]): 95%
- inhibition at 10 µM (HDAC3/NCOR1 complex): 98%
- IC50 (HDAC3/NCOR1 complex): 0.26 µM
- IC50 HDAC3 (HDAC3/NCOR1 complex): submicromolar
- IC50 [1]: > 100 µM
- IC50 (HDAC6): > 100 µM
- acetylation of α-tubulin [5]: did not enhance the acetylation of α-tubulin
- NF-κB acetylation [6]: dose-dependent increase of NF-κB acetylation
- IC50 (HDAC1): > 100 µM
- GI50 [2, 10]: 1 µM
- HIV-1 expression (p24 antigen in supernatant) ([3]; 48 h, 10 µM): less active at 10 µM due to cytotoxicity
- HIV-1 expression (p24 antigen in supernatant) [3, 11]: significantly stimulated HIV-1 expression
- IC50 (HDAC8): > 100 µM
- IC50 (HDAC4): > 100 µM
- GI50 [4, 12]: 0.94 µM
- levels of acetylated p53 [7]: not elevated

SMILES: Nc1ccccc1NC(=O)CCc1cn(Cc2cccc(-c3ccccc3)c2)nn1 [Compound T52]
- HDAC3 inhibition (%) (HDAC3/NCOR1 complex; 1 µM, means of two experiments): 55%
- HDAC3 inhibition (%) (HDAC3/NCOR1 complex; 3 µM, means of two experiments): 81%

SMILES: COc1ccccc1CCn1cc(-c2ccc(C(=O)Nc3ccccc3N)cc2)nn1 [Compound T266]
- HDAC3 inhibition (%) (HDAC3/NCOR1 complex; 1 µM, means of two experiments): 73%
- HDAC3 inhibition (%) (HDAC3/NCOR1 complex; 3 µM, means of two experiments): 91%

SMILES: Nc1ccccc1NC(=O)c1ccc(-c2cn(Cc3cccc4ccccc34)nn2)cc1 [Compound T251]
- HDAC3 inhibition (%) (HDAC3/NCOR1 complex; 1 µM, means of two experiments): 75%
- HDAC3 inhibition (%) (HDAC3/NCOR1 complex; 3 µM, means of two experiments): 92%

SMILES: O=C(CCCCCCC(=O)Nc1ccccc1)NO [vorinostat (3), vorinostat, reference compound]
- inhibition at 1 µM (HDAC3/NCOR1 complex; read-out: HDAC3 inhibition (%)): 83%
- inhibition at 3 µM (HDAC3/NCOR1 complex; read-out: HDAC3 inhibition (%)): 93%
- inhibition at 1 µM (HDAC3/NCOR1 complex; read-out: HDAC3 inhibition (%) at 1 µM): 98%
- NF-κB acetylation [6]: induced non-selective acetylation of NF-κB and p53
- GI50 ([2]; PC-3, 48 h): 1.6 µM
- HIV-1 expression (p24 antigen in supernatant) [3, 11]: significantly stimulated HIV-1 expression
- GI50 ([4]; HCT-116, 48 h): 1.3 µM
- levels of acetylated p53 [7]: induced non-selective acetylation of NF-κB and p53

SMILES: Nc1ccccc1NC(=O)c1cccc(-c2cn(CC(=O)c3ccccc3)nn2)c1 [Compound T199]
- HDAC3 inhibition (%) (HDAC3/NCOR1 complex; 1 µM, means of two experiments): 59%
- HDAC3 inhibition (%) (HDAC3/NCOR1 complex; 3 µM, means of two experiments): 83%

SMILES: Nc1ccccc1NC(=O)c1ccc(-c2cn(CCc3ccc(F)cc3)nn2)s1 [Compound T318]
- HDAC3 inhibition (%) (HDAC3/NCOR1 complex; 1 µM, means of two experiments): 77%
- HDAC3 inhibition (%) (HDAC3/NCOR1 complex; 3 µM, means of two experiments): 91%

SMILES: Nc1ccccc1NC(=O)c1ccc(-c2cn(CCc3ccsc3)nn2)cc1 [Compound T247, N-(2-Aminophenyl)-4-[1-(2-thiophen-3-ylethyl)-1H-[1], [2], [3]triazol-4-yl]benzamide]
- inhibition at 1 µM (HDAC3/NCOR1 complex; [8]): 89%
- inhibition at 3 µM (HDAC3/NCOR1 complex; [9]): 95%
- inhibition at 10 µM (HDAC3/NCOR1 complex): 93%
- IC50 HDAC3 (HDAC3/NCOR1 complex): submicromolar
- IC50 [1]: > 100 µM
- acetylation of α-tubulin [5]: did not enhance the acetylation of α-tubulin
- NF-κB acetylation [6]: dose-dependent increase of NF-κB acetylation
- IC50 (HDAC1): 19 µM
- GI50 [2, 10]: 1.4 µM
- HIV-1 expression (p24 antigen in supernatant) [3, 11]: significantly stimulated HIV-1 expression
- GI50 [4, 12]: 1.9 µM
- levels of acetylated p53 [7]: not elevated

SMILES: Nc1ccccc1NC(=O)c1ccc(-c2cn(CCc3cccc(F)c3)nn2)cc1 [Compound T261]
- HDAC3 inhibition (%) (HDAC3/NCOR1 complex; 1 µM, means of two experiments): 75%
- HDAC3 inhibition (%) (HDAC3/NCOR1 complex; 3 µM, means of two experiments): 89%
